Data from ChEMBL document CHEMBL6087386, “Radioprotective effectiveness of a novel delta-tocotrienol prodrug on mouse hematopoietic system against 60Co gamma-ray irradiation through inducing granulocyte-colony stimulating factor production” (Eur J Med Chem, 2024).
The source made the active and inactive calls. The calls are words filed in the database; no cut-off is given here.

Assays:
Mus musculus [1] = assay: Radioprotective activity in C57BL/6J mouse assessed as increase in ST-HSC number at 100 mg/kg, sc preincubated with compound for 24 hrs followed by total body irradiation with 6.5 Gy and measured after 30 days; type: functional, organism-based; details: time 31.0 day
Mus musculus [2] = assay: Radioprotective activity in C57BL/6J mouse assessed as splenomegaly at 100 mg/kg, sc preincubated with compound for 24 hrs followed by total body irradiation with 6.5 Gy and measured after 10 days; type: functional, organism-based; details: time 11.0 day
[3] = Cmax in ICR mouse at 100 mg/kg, sc measured upto 24 hrs by LC-MS/MS analysis; type: ADME, organism-based; details: in vivo
Mus musculus [4] = assay: Radioprotective activity in C57BL/6J mouse assessed as fold increase in total number of splenic nucleated cells at 100 mg/kg, sc preincubated with compound for 24 hrs followed by total body irradiation with 6.5 Gy and measured after 10 days; type: functional; details: time 11 day
Mus musculus [5] = assay: Induction of G-CSF production in sc dosed C57BL/6J mouse model measured for 24 hrs by ELISA analysis; type: functional, organism-based; details: dose 12.5-200 mg/kg
Mus musculus [6] = assay: Radioprotective activity in C57BL/6J mouse assessed as increase in spleen coefficient at 100 mg/kg, sc preincubated with compound for 24 hrs followed by total body irradiation with 6.5 Gy and measured after 10 days; type: functional, organism-based; details: time 11.0 day
Mus musculus [7] = assay: Radioprotective activity in C57BL/6J mouse assessed as increase in neutrophils at 100 mg/kg, sc preincubated with compound for 24 hrs followed by total body irradiation with 6.5 Gy and measured after 30 days; type: functional, organism-based; details: time 31.0 day
Mus musculus [8] = assay: Radioprotective activity in C57BL/6J mouse assessed as survival rate at 100 mg/kg, sc preincubated with compound for 24 hrs followed by total body irradiation with 8.5 Gy and measured after 20 days by Kaplan-meier plot analysis; type: functional; details: light or radiation study, 504 h, time 21 day
[9] = MRT (0 to t) in ICR mouse at 100 mg/kg, sc measured upto 24 hrs by LC-MS/MS analysis; type: ADME, organism-based; details: in vivo
[10] = Tmax in ICR mouse at 100 mg/kg, sc measured upto 24 hrs by LC-MS/MS analysis; type: ADME, organism-based; details: in vivo
[11] = Cmax in ICR mouse at 100 mg/kg, iv measured upto 24 hrs by LC-MS/MS analysis; type: ADME, organism-based; details: in vivo
Mus musculus [12] = assay: Radioprotective activity in C57BL/6J mouse assessed as increase in MPP number at 100 mg/kg, sc preincubated with compound for 24 hrs followed by total body irradiation with 6.5 Gy and measured after 30 days; type: functional, organism-based; details: time 31.0 day
[13] = MRT (0 to infinity) in ICR mouse at 100 mg/kg, iv measured upto 24 hrs by LC-MS/MS analysis; type: ADME, organism-based; details: ICR, in vivo
Mus musculus [14] = assay: Radioprotective activity in C57BL/6J mouse assessed as increase in platelets count at 100 mg/kg, sc preincubated with compound for 24 hrs followed by total body irradiation with 6.5 Gy and measured after 30 days; type: functional, organism-based; details: time 31.0 day
[15] = Clearance in ICR mouse at 100 mg/kg, iv measured upto 24 hrs by LC-MS/MS analysis; type: ADME, organism-based; details: in vivo
Mus musculus [16] = assay: Radioprotective activity in C57BL/6J mouse assessed as increase in long term hematopoietic stem cell frequency in LSK compartment at 100 mg/kg, sc preincubated with compound for 24 hrs followed by total body irradiation with 6.5 Gy and measured after 30 days; type: functional, organism-based; details: time 31.0 day
Mus musculus [17] = assay: Induction of G-CSF production in C57BL/6J mouse model at 100 to 200 mg/kg, sc measured for 24 hrs by ELISA analysis; type: functional, organism-based; details: dose 100-200 mg/kg
Mus musculus [18] = assay: Radioprotective activity in C57BL/6J mouse assessed as increase in neutrophils at 100 mg/kg, sc preincubated with compound for 24 hrs followed by total body irradiation with 6.5 Gy and measured on day 7; type: functional, organism-based; details: time 8.0 day
Mus musculus [19] = assay: Induction of G-CSF production in C57BL/6J mouse model at 100 mg/kg, sc measured for 24 hrs by ELISA analysis; type: functional, organism-based
Mus musculus [20] = assay: Radioprotective activity in C57BL/6J mouse assessed as increase in percentage of LSK cells at 100 mg/kg, sc preincubated with compound for 24 hrs followed by total body irradiation with 6.5 Gy and measured after 30 days; type: functional, organism-based; details: time 31.0 day
Mus musculus [21] = assay: Induction of G-CSF production in C57BL/6J mouse model at 12.5 to 25 mg/kg, sc measured for 24 hrs by ELISA analysis; type: functional, organism-based; details: dose 12.5-25 mg/kg
Mus musculus [22] = assay: Radioprotective activity in C57BL/6J mouse assessed as increase in RBC count at 100 mg/kg, sc preincubated with compound for 24 hrs followed by total body irradiation with 6.5 Gy and measured after 30 days; type: functional, organism-based; details: time 31.0 day
[23] = Half life in ICR mouse at 100 mg/kg, iv measured upto 24 hrs by LC-MS/MS analysis; type: ADME, organism-based; details: in vivo
[24] = Bioavailability in ICR mouse at 100 mg/kg, sc measured upto 24 hrs by LC-MS/MS analysis; type: ADME, organism-based; details: in vivo
Mus musculus [25] = assay: Radioprotective activity in C57BL/6J mouse assessed as survival rate at 100 mg/kg, sc preincubated with compound for 24 hrs followed by total body irradiation with 9.5 Gy and measured after 30 days by Kaplan-meier plot analysis; type: functional; details: light or radiation study, 744 h, time 31 day
Mus musculus [26] = assay: Radioprotective activity in C57BL/6J mouse assessed as increase in platelet count at 100 mg/kg, sc preincubated with compound for 24 hrs followed by total body irradiation with 6.5 Gy and measured on day 10; type: functional, organism-based; details: time 11.0 day
[27] = MRT (0 to t) in ICR mouse at 100 mg/kg, iv measured upto 24 hrs by LC-MS/MS analysis; type: ADME, organism-based; details: in vivo
Mus musculus [28] = assay: Radioprotective activity in C57BL/6J mouse assessed as increase in WBC count at 100 mg/kg, sc preincubated with compound for 24 hrs followed by total body irradiation with 6.5 Gy and measured after 30 days; type: functional, organism-based; details: time 31.0 day
Mus musculus [29] = assay: Radioprotective activity in C57BL/6J mouse assessed as increase in multipotent progenitor frequency in LSK compartment at 100 mg/kg, sc preincubated with compound for 24 hrs followed by total body irradiation with 6.5 Gy and measured after 30 days; type: functional, organism-based; details: time 31.0 day
Mus musculus [30] = assay: Radioprotective activity in C57BL/6J mouse assessed as effect on splenic LT-HSCs number at 100 mg/kg, sc preincubated with compound for 24 hrs followed by total body irradiation with 6.5 Gy and measured after 10 days; type: functional, organism-based; details: time 11.0 day
Mus musculus [31] = assay: Induction of G-CSF production in C57BL/6J mouse model at 50 mg/kg, sc measured for 24 hrs by ELISA analysis; type: functional, organism-based
Mus musculus [32] = assay: Radioprotective activity in C57BL/6J mouse assessed as increase in percentage of LK cells at 100 mg/kg, sc preincubated with compound for 24 hrs followed by total body irradiation with 6.5 Gy and measured after 30 days; type: functional, organism-based; details: time 31.0 day
Mus musculus [33] = assay: Radioprotective activity in C57BL/6J mouse assessed as effect on LT-HSC number at 100 mg/kg, sc preincubated with compound for 24 hrs followed by total body irradiation with 6.5 Gy and measured after 30 days; type: functional, organism-based; details: time 31.0 day
[34] = Volume of distribution at steady state in ICR mouse at 100 mg/kg, iv measured upto 24 hrs by LC-MS/MS analysis; type: ADME, organism-based; details: ICR, in vivo, read-out: Vdss
Mus musculus [35] = assay: Radioprotective activity in C57BL/6J mouse assessed as increase in RBC count at 100 mg/kg, sc preincubated with compound for 24 hrs followed by total body irradiation with 6.5 Gy and measured on day 14; type: functional, organism-based; details: time 15.0 day
[36] = Tmax in ICR mouse at 100 mg/kg, iv measured upto 24 hrs by LC-MS/MS analysis; type: ADME, organism-based; details: in vivo
Mus musculus [37] = assay: Radioprotective activity in C57BL/6J mouse assessed as increase in number of total bone marrow cells at 100 mg/kg, sc preincubated with compound for 24 hrs followed by total body irradiation with 6.5 Gy and measured after 30 days; type: functional, organism-based; details: time 31.0 day
Mus musculus [38] = assay: Radioprotective activity in C57BL/6J mouse assessed as increase in number of LSK cells at 100 mg/kg, sc preincubated with compound for 24 hrs followed by total body irradiation with 6.5 Gy and measured after 30 days; type: functional, organism-based; details: time 31.0 day
Mus musculus [39] = assay: Radioprotective activity in C57BL/6J mouse assessed as increase in number of LK cells at 100 mg/kg, sc preincubated with compound for 24 hrs followed by total body irradiation with 6.5 Gy and measured after 30 days; type: functional, organism-based; details: time 31.0 day
Mus musculus [40] = assay: Radioprotective activity in C57BL/6J mouse assessed as survival rate at 100 mg/kg, sc preincubated with compound for 24 hrs followed by total body irradiation with 8.5 Gy and measured after 30 days by Kaplan-meier plot analysis; type: functional; details: time 31 day

In the case of `CC(C)=CCC/C(C)=C/CC/C(C)=C/CC[C@]1(C)CCc2cc(O)cc(C)c2O1` [DELTA-TOCOTRIENOL], the Activity (Mus musculus [1]) is reported as “Active”, the Activity (Mus musculus [2]) is reported as “Active” and the Cmax [3] is reported as 4.95 ng/mL. The “fold change (FC)” value (Mus musculus [4]) was roughly 2.5, the Activity (Mus musculus [5]) was “Dose-dependent-effect” and the Activity (Mus musculus [6]) was “Active”. The Activity (Mus musculus [7]) was “Active”, the survival at 100 mg/kg (Mus musculus [8]) was 70% and the MRT last at 24 h [9] was 13.9 h. For the same compound, the Tmax [10] was 12 h, the Cmax [11] was 1.11 ng/mL and the Activity (Mus musculus [12]) was “Active”. For the same compound, the MRT inf [13] was 1.63 h, the Activity (Mus musculus [14]) was “Active” and the CL [15] was 4.4143 mL/min/kg. For the same compound, the Activity (Mus musculus [16]) was “Active”, the Activity (Mus musculus [17]) was “Active” and the Activity (Mus musculus [18]) was “Active”. The Activity (Mus musculus [19]) was “Active”, the Activity (Mus musculus [20]) was “Active” and the Activity (Mus musculus [21]) was “inactive”. For the same compound, the Activity (Mus musculus [22]) was “Active”, the half-life [23] was 4.43 h and the F [24] was 2.02%. For the same compound, the survival at 100 mg/kg (Mus musculus [25]) was 60%, the Activity (Mus musculus [26]) was “Active” and the MRT last at 24 h [27] was 1.46 h. For the same compound, the Activity (Mus musculus [28]) was “Active”, the Activity (Mus musculus [29]) was “Active” and the Activity (Mus musculus [30]) was “Active”. For the same compound, the Activity (Mus musculus [31]) was “Active”, the Activity (Mus musculus [32]) was “Active” and the Activity (Mus musculus [33]) was “inactive”. For the same compound, the Vd [34] was 0.437 L/kg, the Activity (Mus musculus [35]) was “Active” and the Tmax [36] was 0.08 h.
With `CC(C)=CCC/C(C)=C/CC/C(C)=C/CC[C@]1(C)CCc2cc(OCCO)cc(C)c2O1` the Activity (Mus musculus [2]) was “Active”, the Cmax [3] was 1.14 ng/mL and the Activity (Mus musculus [6]) was “Active”. For the same compound, the Activity (Mus musculus [7]) was “Active”, the survival at 100 mg/kg (Mus musculus [8]) was 70% and the MRT last at 24 h [9] was 12 h. The Tmax [10] was 0.67 h, the Activity (Mus musculus [37]) was “Active” and the Activity (Mus musculus [38]) was “Active”. The Cmax [11] was 8.15 ng/mL, the Activity (Mus musculus [39]) was “Active” and the MRT inf [13] was 0.92 h. For the same compound, the Activity (Mus musculus [14]) was “Active”, the CL [15] was 6.3815 mL/min/kg and the Activity (Mus musculus [16]) was “Active”. For the same compound, the Activity (Mus musculus [18]) was “Active”, the Activity (Mus musculus [19]) was “Active” and the Activity (Mus musculus [22]) was “Active”. The half-life [23] was 7.56 h, the F [24] was 8.3% and the Activity (Mus musculus [26]) was “Active”. The MRT last at 24 h [27] was 0.67 h, the Activity (Mus musculus [28]) was “Active” and the Activity (Mus musculus [29]) was “Active”. For the same compound, the Vd [34] was 0.351 L/kg, the Activity (Mus musculus [35]) was “Active” and the Tmax [36] was 17.3 h. The Activity (Mus musculus [40]) was 100%.
